Results on eleven compounds are retold here after patent US10174016B2 (BAYER AKTIENGESELLSCHAFT, priority 2014, dated 2019).

Assay [1] deals with human P2X2/3 receptor (Homo sapiens (Human), UniProt P56373+Q9UBL9). In words: Intracellular calcium measurement (FLIPR, Fluo-4) of antagonist activity at human P2X2/3 receptors. The assay is classed as cell-based. Conditions: for IC50: hP2X2/3 IC50 (nM); for pIC50: human P2X2/3, FLIPR calcium assay, agonist α,β-Me-ATP, read-out: hP2X2/3 IC50. The gist of the method:
(§1)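 Cells expressing human P2X3 or P2X2/3, loaded with Fluo-4, preincubated 30 min at 37° C. with compound (1% DMSO final), then challenged with α,β-Me-ATP at its EC80. Peak FLIPR fluorescence over 90 sec gave % response; IC50, maximal inhibition and Hill slope from triplicates.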
Background: Calcium flux is commonly read through the fluorescence of an indicator in the cells.

Assay [2] has as its target human P2X3 receptor (Homo sapiens (Human), UniProt P56373). In words: Intracellular calcium measurement (FLIPR, Fluo-4) of antagonist activity at human P2X3 receptors. The assay is classed as cell-based. The conditions noted are these: read-out: hP2X3 IC50. The gist of the method:
as §1

The mark [3] stands for this setting: human P2X3, FLIPR calcium assay, agonist α,β-Me-ATP.

The structures appear in SMILES notation. pIC50: −log10 of the molar value. Where two headings read alike, the source gives them in different places. Some results are limits rather than exact numbers.

Chain of human P2X2/3 receptor (P56373 whole entry): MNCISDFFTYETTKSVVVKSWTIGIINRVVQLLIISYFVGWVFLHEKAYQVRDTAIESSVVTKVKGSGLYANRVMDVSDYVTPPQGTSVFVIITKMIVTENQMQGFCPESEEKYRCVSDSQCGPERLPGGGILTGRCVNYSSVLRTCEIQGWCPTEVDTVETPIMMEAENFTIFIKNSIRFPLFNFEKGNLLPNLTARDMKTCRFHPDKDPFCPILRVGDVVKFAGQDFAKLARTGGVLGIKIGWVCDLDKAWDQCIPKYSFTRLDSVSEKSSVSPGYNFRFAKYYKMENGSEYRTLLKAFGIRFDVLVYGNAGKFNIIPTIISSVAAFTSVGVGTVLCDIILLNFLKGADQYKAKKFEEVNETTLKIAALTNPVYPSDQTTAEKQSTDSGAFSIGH
Chain of human P2X2/3 receptor (Q9UBL9 whole entry): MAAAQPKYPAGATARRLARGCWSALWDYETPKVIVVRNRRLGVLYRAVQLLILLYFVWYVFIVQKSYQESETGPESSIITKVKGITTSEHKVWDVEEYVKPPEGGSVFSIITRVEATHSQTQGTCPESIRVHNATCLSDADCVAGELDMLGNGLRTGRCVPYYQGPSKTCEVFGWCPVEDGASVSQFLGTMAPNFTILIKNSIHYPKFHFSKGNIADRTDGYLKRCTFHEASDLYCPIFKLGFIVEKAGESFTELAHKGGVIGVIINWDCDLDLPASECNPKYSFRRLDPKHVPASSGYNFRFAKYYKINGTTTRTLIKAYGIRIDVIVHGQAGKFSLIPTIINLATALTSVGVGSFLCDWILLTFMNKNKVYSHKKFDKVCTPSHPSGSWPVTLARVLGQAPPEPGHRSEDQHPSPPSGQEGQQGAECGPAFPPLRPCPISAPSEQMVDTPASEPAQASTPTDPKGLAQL
Chain of human P2X3 receptor (P56373 whole entry): as the sequence (P56373 whole entry) above

The term IC50 denotes the concentration that inhibits the measured activity by half. Regarding `Cc1cnc(-c2cc(O[C@H]3CN4CCC3CC4)cc(C(=O)N[C@H](C)c3cnc(C(F)(F)F)nc3)c2)s1` [Example 168, 3-[(3R)-1-azabicyclo[2.2.2]oct-3-yloxy]-5-(5-methyl-1,3-thiazol-2-yl)-N-{(1R)-1-[2-(trifluoromethyl)pyrimidin-5-yl]ethyl}benzamide], the IC50 in assay [1] worked out at 1600 nM. In addition, the pIC50 in assay [2] is 7.72.

`Cc1cnc(-c2cc(O[C@@H]3CCOC3)cc(C(=O)N[C@H](C)c3ccc(Cl)cn3)c2)s1` [Example 15, N-[(1R)-1-(5-chloropyridin-2-yl)ethyl]-3-(5-methyl-1,3-thiazol-2-yl)-5-[(3R)-tetrahydrofuran-3-yloxy]benzamide]: the pIC50 in assay [1] was 6.83; in assay [2] (setting [3]), 8.22.

As for `C[C@@H](NC(=O)c1cc(OC[C@@H]2CCOC2)cc(-c2ncc(C3CCC3)s2)c1)c1cnc(C(F)(F)F)nc1` [Example 263, 3-(5-cyclobutyl-1,3-thiazol-2-yl)-5-[(3R)-tetrahydrofuran-3-ylmethoxy]-N-{(1R)-1-[2-(trifluoromethyl)pyrimidin-5-yl]ethyl}benzamide], the pIC50 in assay [1] was 6.77; in assay [2] (setting [3]), 7.48.

As to `COC(C)(C)COc1cc(C(=O)N[C@H](C)c2cnc(C)cn2)cc(-c2ncc(Cl)s2)c1` [Example 117, 3-(5-Chloro-1,3-thiazol-2-yl)-5-(2-methoxy-2-methylpropoxy)-N-[(1R)-1-(5-methylpyrazin-2-yl)ethyl]benzamide], the pIC50 in assay [1] was 6.05; in assay [2] (setting [3]), 7.44.

As to `Cc1cnc(-c2cc(OC[C@H]3CCCO3)cc(C(=O)N[C@H](C)c3cnc(C(F)(F)F)nc3)c2)s1` [Example 63, 3-(5-Methyl-1,3-thiazol-2-yl)-5-[(2R)-tetrahydrofuran-2-ylmethoxy]-N-{(1R)-1-[2-(trifluoromethyl)pyrimidin-5-yl]ethyl}benzamide], the figures for the pIC50 in assay [1] and in assay [2] (setting [3]) were 6.93 and 8.40, respectively.

With `Cc1ccc(CNC(=O)c2cc(O[C@H]3CCOC3)cc(-c3ncc(C)s3)c2)nn1` [Example 133, N-[(6-Methylpyridazin-3-yl)methyl]-3-(5-methyl-1,3-thiazol-2-yl)-5-[(3S)-tetrahydrofuran-3-yloxy]benzamide], the pIC50 was at most 5.00 in assay [1] and 6.75 in assay [2] (setting [3]).

For the compound `Cc1cnc(-c2cc(OCC3CC3)cc(C(=O)NC(C)c3ncc(F)cc3Cl)c2)s1` (racemic) [Example 5, N-[1-(3-Chloro-5-fluoropyridin-2-yl)ethyl]-3-(cyclopropylmethoxy)-5-(5-methyl-1,3-thiazol-2-yl)benzamide], the pIC50 in assay [1] is 6.46; in assay [2] (setting [3]), 7.80.

`Cc1cnc(-c2cc(O[C@@H]3CCOC3)cc(C(=O)N[C@H](C)c3ccc(C(F)F)nc3)c2)s1` [Example 171, N-{(1R)-1-[6-(difluoromethyl)pyridin-3-yl]ethyl}-3-(5-methyl-1,3-thiazol-2-yl)-5-[(3R)-tetrahydrofuran-3-yloxy]benzamide]: the results for the pIC50 in assay [1] and in assay [2] (setting [3]) were 6.24 and 7.59, respectively.

For `C[C@@H](NC(=O)c1cc(O[C@H]2CCOC2)cc(-c2ncc(Cl)s2)c1)c1ccc(C(F)(F)F)nn1` [Example 320, 3-(5-chloro-1,3-thiazol-2-yl)-5-[(3S)-tetrahydrofuran-3-yloxy]-N-{(1R)-1-[6-(trifluoromethyl)pyridazin-3-yl]ethyl}benzamide], the pIC50 is 6.20 in assay [1] and 7.48 in assay [2] (setting [3]).

Turning to `Cc1cnc(-c2cc(OC3COC3)cc(C(=O)N[C@H](C)c3ccc(C(F)(F)F)nn3)c2)s1` [Example 161, 3-(5-methyl-1,3-thiazol-2-yl)-5-(oxetan-3-yloxy)-N-{(1R)-1-[6-(trifluoromethyl)pyridazin-3-yl]ethyl}benzamide], the figures for the pIC50 in assay [1] and in assay [2] (setting [3]) were 6.20 and 7.49, respectively.

Consider `Cc1cnc(-c2cc(O[C@@H]3CN4CCC3CC4)cc(C(=O)N[C@H](C)c3cnc(C(F)(F)F)nc3)c2)s1` [Example 192, 3-[(3S)-1-azabicyclo[2.2.2]oct-3-yloxy]-5-(5-methyl-1,3-thiazol-2-yl)-N-{(1R)-1-[2-(trifluoromethyl)pyrimidin-5-yl]ethyl} benzamide], for which the IC50 in assay [1] amounted to 910 nM. Besides, the pIC50 in assay [2] is 7.92.
